According to ChEMBL document CHEMBL1142481, “Novel 5-HT(1A/1B/1D) receptors antagonists with potent 5-HT reuptake inhibitory activity” (Bioorg Med Chem Lett, 2008):

What was measured:
[1] = target: T1, 5-hydroxytryptamine receptor 1A (Homo sapiens) (UniProt P08908); test: Intrinsic activity at human cloned 5HT1A receptor expressed in CHO cells; assay type: cell-based
T1 sequence (whole entry): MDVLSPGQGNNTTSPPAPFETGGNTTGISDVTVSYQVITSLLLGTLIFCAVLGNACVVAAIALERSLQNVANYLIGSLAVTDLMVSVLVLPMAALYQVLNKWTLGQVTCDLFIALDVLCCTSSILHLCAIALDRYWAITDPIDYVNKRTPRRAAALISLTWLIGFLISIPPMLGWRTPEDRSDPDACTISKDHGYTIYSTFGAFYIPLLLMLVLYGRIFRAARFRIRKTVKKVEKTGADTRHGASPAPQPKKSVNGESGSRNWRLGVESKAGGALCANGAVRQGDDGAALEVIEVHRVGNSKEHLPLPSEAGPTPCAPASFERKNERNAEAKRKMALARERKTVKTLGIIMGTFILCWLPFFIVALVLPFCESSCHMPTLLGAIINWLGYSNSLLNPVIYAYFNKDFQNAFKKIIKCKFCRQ

[2] = target: Sodium-dependent serotonin transporter (Rattus norvegicus, UniProt P31652); test: Inhibition of [3H]5HT reuptake at SERT in rat cortical synaptosomes; assay type: subcellular, Brain
Sodium-dependent serotonin transporter, sequence (P31652 whole entry): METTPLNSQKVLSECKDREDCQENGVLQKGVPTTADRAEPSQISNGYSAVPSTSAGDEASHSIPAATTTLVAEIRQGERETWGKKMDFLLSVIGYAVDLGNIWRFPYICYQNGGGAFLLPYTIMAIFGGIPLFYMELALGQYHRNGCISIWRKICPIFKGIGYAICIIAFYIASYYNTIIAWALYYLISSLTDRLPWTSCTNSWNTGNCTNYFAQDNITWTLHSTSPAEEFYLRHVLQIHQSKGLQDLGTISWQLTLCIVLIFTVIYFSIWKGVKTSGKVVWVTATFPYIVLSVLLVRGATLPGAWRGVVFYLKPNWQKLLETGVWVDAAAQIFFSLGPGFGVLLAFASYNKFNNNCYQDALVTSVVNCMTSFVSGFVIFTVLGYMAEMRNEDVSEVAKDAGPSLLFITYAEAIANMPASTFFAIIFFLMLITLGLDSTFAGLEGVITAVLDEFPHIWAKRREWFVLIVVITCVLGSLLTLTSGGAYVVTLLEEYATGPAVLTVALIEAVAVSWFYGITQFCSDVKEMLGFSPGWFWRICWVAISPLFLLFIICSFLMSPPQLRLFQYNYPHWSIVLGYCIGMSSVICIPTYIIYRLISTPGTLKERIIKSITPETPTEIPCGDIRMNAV

[3] = target: T2, 5-hydroxytryptamine receptor 1B (Homo sapiens, UniProt P28222); test: Displacement of [3H]5HT from human cloned 5HT1B receptor expressed in CHO cells; assay type: cell-based
T2 sequence (P28222 whole entry): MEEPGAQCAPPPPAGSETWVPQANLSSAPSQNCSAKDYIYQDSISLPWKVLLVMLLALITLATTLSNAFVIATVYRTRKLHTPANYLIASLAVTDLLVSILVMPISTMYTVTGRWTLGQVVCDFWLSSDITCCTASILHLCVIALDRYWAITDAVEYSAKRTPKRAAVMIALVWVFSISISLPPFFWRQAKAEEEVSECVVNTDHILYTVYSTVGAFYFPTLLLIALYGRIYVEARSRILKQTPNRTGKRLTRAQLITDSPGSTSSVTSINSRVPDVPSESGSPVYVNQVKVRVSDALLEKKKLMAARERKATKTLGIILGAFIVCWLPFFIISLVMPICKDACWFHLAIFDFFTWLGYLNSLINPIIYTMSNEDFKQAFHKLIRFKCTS

[4] = target: T3, 5-hydroxytryptamine receptor 1A (Homo sapiens, UniProt P08908); test: Displacement of [3H]5HT from human cloned 5HT1A receptor expressed in CHO cells; assay type: cell-based
T3 sequence (P08908 whole entry): T1 sequence (whole entry)

[5] = target: T4, 5-hydroxytryptamine receptor 1D (Homo sapiens, UniProt P28221); test: Displacement of [3H]5HT from human cloned 5HT1D receptor expressed in CHO cells; assay type: cell-based
T4 sequence (P28221 whole entry): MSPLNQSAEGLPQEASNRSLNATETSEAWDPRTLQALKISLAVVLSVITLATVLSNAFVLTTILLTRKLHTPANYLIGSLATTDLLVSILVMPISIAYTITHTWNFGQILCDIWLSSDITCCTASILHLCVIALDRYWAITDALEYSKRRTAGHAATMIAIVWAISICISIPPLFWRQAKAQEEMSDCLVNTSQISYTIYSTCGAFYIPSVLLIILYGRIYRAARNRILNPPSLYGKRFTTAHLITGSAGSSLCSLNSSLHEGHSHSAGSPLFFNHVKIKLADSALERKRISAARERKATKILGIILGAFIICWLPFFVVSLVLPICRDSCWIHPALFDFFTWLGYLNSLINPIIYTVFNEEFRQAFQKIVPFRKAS

[6] = target: T2, 5-hydroxytryptamine receptor 1B; test: Intrinsic activity at human cloned 5HT1B receptor expressed in CHO cells; assay type: cell-based
[7] = target: T4, 5-hydroxytryptamine receptor 1D; test: Intrinsic activity at human cloned 5HT1D receptor expressed in CHO cells; assay type: cell-based
[8] = Oral bioavailability in rat at 3 mg/kg; assay type: ADME, organism-based; conditions: in vivo
[9] = Clearance in rat at 3 mg/kg, po; assay type: ADME, organism-based; set-up: dose 3 mg/kg, route oral; conditions: in vivo
[10] = Cmax in rat at 3 mg/kg, po; assay type: ADME, organism-based; set-up: dose 3 mg/kg, route oral; conditions: in vivo

Cc1ccc2c(N3CCN(CCCc4ccc5c(c4)NC(=O)CO5)CC3)cccc2n1
Intrinsic activity [1]: 0

Cc1ccc2c(OC3CCN(CCc4ccc5c(c4)NC(=O)CO5)CC3)cccc2n1
Ki [2]: 100 nM | Ki [3]: 25.1 nM | Ki [4]: 316 nM | Ki [5]: 6.31 nM

Cc1ccc2c(OCC(C)N3CCC(Cc4ccc5c(c4)NC(=O)CO5)CC3)cccc2n1 (single isomer, unassigned; enantiomer I)
Ki [3]: 39.8 nM | Ki [4]: 50.1 nM | Ki [5]: 251 nM

Cc1ccc2c(OC3CCN(CC(=O)c4ccc5c(c4)NC(=O)CO5)CC3)cccc2n1
Ki [3]: > 5010 nM | Ki [4]: > 10000 nM | Ki [5]: 2000 nM

Cc1ccc2c(OC(C)CN3CCC(Cc4ccc5c(c4)NC(=O)CO5)CC3)cccc2n1 (racemic)
Ki [2]: 251 nM | Ki [3]: 200 nM | Ki [4]: 398 nM | Ki [5]: 79.4 nM

Cc1ccc2c(OCCN3CC(COc4ccc5c(c4)NC(=O)CO5)C3)cccc2n1
Intrinsic activity [6]: 0.5 | Intrinsic activity [1]: 0.3 | Ki [2]: 63.1 nM | Ki [3]: 50.1 nM | Intrinsic activity [7]: 0.5 | Ki [4]: 50.1 nM | Ki [5]: 7.94 nM

Cc1ccc2c(OCC(C)N3CCC(Cc4ccc5c(c4)NC(=O)CO5)CC3)cccc2n1 (single isomer, unassigned; enantiomer II)
Ki [3]: 100 nM | Ki [4]: 100 nM | Ki [5]: 501 nM

Cc1ccc2c(OCCCN3CC(Oc4ccc5c(c4)NC(=O)CO5)C3)cccc2n1
Ki [4]: 158 nM

Cc1ccc2c(OCCN3CCC(Cc4ccc5c(c4)NC(=O)CO5)CC3)cccc2n1
Intrinsic activity [6]: 0.5 | Intrinsic activity [1]: 0.1 | Intrinsic activity [7]: 0.5

Cc1ccc2c(OC3CCN(Cc4ccc5c(c4)NC(=O)CO5)CC3)cccc2n1
Ki [2]: 200 nM | Ki [3]: > 2510 nM | Ki [4]: > 10000 nM | Ki [5]: 1260 nM

Cc1ccc2c(N3CCN(CCc4ccc5c(c4)NC(=O)CO5)CC3)cccc2n1
Intrinsic activity [6]: 0.1 | Intrinsic activity [1]: 0.2 | bioavailability [8]: 72% | CL/F [9]: 7 mL/min/kg | Cmax [10]: 360 ng/mL

Cc1ccc2c(N3CCN(Cc4ccc5c(c4)NC(=O)CO5)CC3)cccc2n1
Ki [2]: 794 nM | Ki [3]: > 10000 nM | Ki [4]: 631 nM | Ki [5]: 126 nM

Cc1ccc2c(OCC3CCN(Cc4ccc5c(c4)NC(=O)CO5)CC3)cccc2n1
Ki [4]: > 1580 nM

Cc1ccc2c(OCC3CCN(CC(=O)c4ccc5c(c4)NC(=O)CO5)CC3)cccc2n1
Ki [2]: 794 nM | Ki [3]: 631 nM | Ki [4]: 501 nM | Ki [5]: 251 nM

Cc1ccc2c(OCCCN3CC(COc4ccc5c(c4)NC(=O)CO5)C3)cccc2n1
Ki [3]: 316 nM | Ki [4]: 79.4 nM | Ki [5]: 158 nM
